These results are taken from patent US9617260B2, “Inhibitors of bruton's tyrosine kinase” (Hoffmann-La Roche Inc., priority 2013, dated 2017).

One may read the IC50 as the concentration at which inhibition is half-maximal. Low readings indicate higher potency, high ones lower potency.

This assay addresses Bruton's Tyrosine Kinase (BTK), inactivated state (Homo sapiens (Human), UniProt Q06187). As to the kind of experiment: Bruton's Tyrosine Kinase (BTK) Inhibition TR-FRET (Time Resolved FRET) competition assay. It is filed as binding. To be noted: competition with Kinase Tracer 178 for BTK-Eu; plates incubated 18-24 h at 14° C. How it is done: Bruton's Tyrosine Kinase (BTK) Inhibition TR-FRET (Time Resolved FRET) Assay
This BTK competition assay measures compound potency (IC50) for the inactivated state of Bruton's Tyrosine Kinase using FRET (Förster/Fluoresence Resonance Energy Transfer) technology. The BTK-Eu complex was incubated on ice one hour prior to use at a starting concentration of 50 nM BTK-Bioease™: 10 nM Eu-streptavidin (Perkin-Elmer Catalog #AD0062). The assay buffer consisted of 20 mM HEPES (pH 7.15), 0.1 mM DTT, 10 mM MgCl2, 0.5 mg/ml BSA with 3% Kinase Stabilizer (Fremont Biosolutions, Catalog #STB-K02). After 1 h, the reaction mixture from above was diluted 10 fold in assay buffer to make 5 nM BTK: 1 nM Eu-Streptavidin complex (donor fluorophore). 18 μl of a mixture of 0.11 nM BTK-Eu and 0.11 nM Kinase Tracer 178 (Invitrogen, Catalog #PV5593,) with BTK-Eu alone as no negative control, was then dispensed into 384-well flat bottom plates (Greiner, 784076). Compounds to be tested in assay were prepared as 10× concentrations and serial dilution in half-log increments was performed in DMSO so as to generate 10 point curves. To initiate the FRET reaction, compounds prepared as 10× stock in DMSO was added to the plates and the plates were incubated 18-24 h at 14° C.
After the incubation the plates were read on a BMG Pherastar Fluorescent plate reader (or equivalent) and used to measure the emission energy from the europium donor fluorophore (620 nm emission) and the FRET (665 nm emission). The negative control well values were averaged to obtain the mean minimum. The positive “no inhibitor” control wells were averaged to obtain the mean maximum. Percent of maximal FRET was calculated using following equation: % max FRET=100×[(FSRcmpd−FSRmean min)/(FSRmean max−FSRmean min)]
where FSR=FRET Signal ratio. % Max FRET curves were plotted in Activity Base (Excel) and the IC50 (%), hill slope, z′ and % CV were determined The mean IC50 and standard deviation will be derived from duplicate curves (singlet inhibition curves from two independent dilutions) using Microsoft Excel.
Representative compound data for this assay are listed below in Table II.

Sequence of Bruton's Tyrosine Kinase (BTK), inactivated state (Q06187 whole entry): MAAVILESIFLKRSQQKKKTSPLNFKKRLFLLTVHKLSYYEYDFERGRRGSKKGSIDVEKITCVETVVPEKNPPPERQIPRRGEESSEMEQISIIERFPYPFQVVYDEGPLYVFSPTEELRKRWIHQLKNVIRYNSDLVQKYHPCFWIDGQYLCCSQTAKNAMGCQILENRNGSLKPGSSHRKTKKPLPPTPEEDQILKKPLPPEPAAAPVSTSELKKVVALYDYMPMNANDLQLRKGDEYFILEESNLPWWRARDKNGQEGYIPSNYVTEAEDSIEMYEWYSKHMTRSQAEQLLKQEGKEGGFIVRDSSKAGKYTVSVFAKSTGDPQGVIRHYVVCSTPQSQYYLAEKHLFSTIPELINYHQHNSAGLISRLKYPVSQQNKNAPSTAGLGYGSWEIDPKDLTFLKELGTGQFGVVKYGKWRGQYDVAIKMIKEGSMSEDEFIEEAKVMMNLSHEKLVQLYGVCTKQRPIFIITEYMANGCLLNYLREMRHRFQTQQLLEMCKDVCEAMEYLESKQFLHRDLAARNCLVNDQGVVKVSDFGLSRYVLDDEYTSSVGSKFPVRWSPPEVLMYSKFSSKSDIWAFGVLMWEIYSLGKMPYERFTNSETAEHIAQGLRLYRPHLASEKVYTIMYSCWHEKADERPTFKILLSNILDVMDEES

On to `CC(=O)C(=O)Nc1cccc(-c2c[nH]c3ncc(NC(=O)OCc4ccccc4Cl)cc23)c1` [Compound 14, (2-chlorophenyl)methyl N-[3-[3-(2-oxopropanoylamino)phenyl]-1H-pyrrolo[2,3-b]pyridin-5-yl]carbamate], for which the IC50 stood at 30 nM. In other words, the double-digit nanomolar range. `CC(=O)C(=O)N1CC=C(c2c[nH]c3ncc(NC(=O)OCc4cccc(F)c4)cc23)CC1` [Compound 28, (3-fluorophenyl)methyl N-[3-[1-(2-oxopropanoyl)-3,6-dihydro-2H-pyridin-4-yl]-1H-pyrrolo[2,3-b]pyridin-5-yl]carbamate] gave a half-maximal inhibitory concentration (IC50) of 210 nM. To `C=CC(=O)N(C)c1cccc(-c2c[nH]c3ncc(NC(=O)OC(C)C)cc23)c1` [Compound 6, propan-2-yl N-[3-[3-[methyl(prop-2-enoyl)amino]phenyl]-1H-pyrrolo[2,3-b]pyridin-5-yl]carbamate] belongs 24 nM. Regarding `CCC(=O)C(=O)Nc1cccc(-c2c[nH]c3ncc(NC(=O)OCc4cccc(F)c4)cc23)c1` [Compound 16, (3-fluorophenyl)methyl N-[3-[3-(2-oxobutanoylamino)phenyl]-1H-pyrrolo[2,3-b]pyridin-5-yl]carbamate], the IC50 was 42 nM. With `CCC(=O)C(=O)N1CC=C(c2c[nH]c3ncc(NC(=O)OCc4ccccc4)cc23)CC1` [Compound 27, benzyl N-[3-[1-(2-oxobutanoyl)-3,6-dihydro-2H-pyridin-4-yl]-1H-pyrrolo[2,3-b]pyridin-5-yl]carbamate], the IC50 is 291 nM. Against the preceding molecule, the IC50 is about 6.9-fold higher.
